Test results: publication PMC6658998, “Pharmacological characterization of the seven human NOX isoforms and their inhibitors” (Redox Biology, 2019)

Legend:
NOX2 = biological target: T1, NOX2 (Homo sapiens, UniProt P04839); experiment: Amplex Red/HRP H2O2 detection in differentiated PLB-985 cells (NOX2)
T1 sequence (P04839 2-570 limits assumed): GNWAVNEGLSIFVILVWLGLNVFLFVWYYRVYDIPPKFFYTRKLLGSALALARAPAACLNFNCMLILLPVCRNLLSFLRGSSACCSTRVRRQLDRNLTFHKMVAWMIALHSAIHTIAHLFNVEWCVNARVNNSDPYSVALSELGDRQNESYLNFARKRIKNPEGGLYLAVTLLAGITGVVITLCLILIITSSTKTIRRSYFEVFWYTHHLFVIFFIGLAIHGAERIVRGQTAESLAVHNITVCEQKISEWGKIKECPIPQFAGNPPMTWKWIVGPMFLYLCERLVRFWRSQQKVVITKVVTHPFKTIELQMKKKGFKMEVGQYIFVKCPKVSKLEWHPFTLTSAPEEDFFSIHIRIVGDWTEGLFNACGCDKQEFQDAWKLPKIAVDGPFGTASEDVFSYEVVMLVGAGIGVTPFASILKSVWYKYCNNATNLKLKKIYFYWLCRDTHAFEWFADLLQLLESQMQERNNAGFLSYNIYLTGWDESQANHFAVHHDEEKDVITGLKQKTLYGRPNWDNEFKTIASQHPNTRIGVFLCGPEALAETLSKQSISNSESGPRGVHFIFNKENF
T1 sequence (P13498 1-195 partner): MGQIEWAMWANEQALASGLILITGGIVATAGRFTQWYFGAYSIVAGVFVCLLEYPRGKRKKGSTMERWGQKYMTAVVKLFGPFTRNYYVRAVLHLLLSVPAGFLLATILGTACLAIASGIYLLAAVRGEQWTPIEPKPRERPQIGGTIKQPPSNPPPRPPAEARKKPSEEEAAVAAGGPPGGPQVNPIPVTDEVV

human NOX1 = biological target: T2, human NOX1 (Homo sapiens, UniProt Q9Y5S8); experiment: Amplex Red/HRP H2O2 detection in NOX1-expressing CHO cells; format: cell-based; conditions: PMA 0.1 μM, read-out: IC50 NOX1 (CHO) AR
T2 construct: expressed in transfected cells; host or cells: CHO
T2 sequence (Q9Y5S8 1-564): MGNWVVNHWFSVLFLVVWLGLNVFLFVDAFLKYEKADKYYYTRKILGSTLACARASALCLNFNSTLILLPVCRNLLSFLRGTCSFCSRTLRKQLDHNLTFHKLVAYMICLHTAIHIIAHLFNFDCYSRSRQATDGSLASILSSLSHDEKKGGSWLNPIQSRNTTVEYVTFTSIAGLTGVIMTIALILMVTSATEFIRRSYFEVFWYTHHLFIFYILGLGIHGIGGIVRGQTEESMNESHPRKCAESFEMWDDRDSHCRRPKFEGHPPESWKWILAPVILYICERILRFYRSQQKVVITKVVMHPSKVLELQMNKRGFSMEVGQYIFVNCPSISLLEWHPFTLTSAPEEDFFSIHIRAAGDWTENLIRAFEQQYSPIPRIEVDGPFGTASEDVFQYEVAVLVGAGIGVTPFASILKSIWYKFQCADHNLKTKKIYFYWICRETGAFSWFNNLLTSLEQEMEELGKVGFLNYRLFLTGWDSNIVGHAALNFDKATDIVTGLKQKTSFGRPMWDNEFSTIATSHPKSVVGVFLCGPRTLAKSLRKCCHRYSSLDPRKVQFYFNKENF
T2 sequence (P13498 1-195 partner): T1 sequence (P13498 1-195 partner)

in vitro [1] = conditions: human
in vitro [2] = conditions: human; remark: listed apart in the source
in vitro [3] = conditions: Chinese hamster
NOX5 = biological target: T3, NOX5 (Homo sapiens, UniProt Q96PH1); experiment: WST-1 O2•- detection in NOX5-expressing HEK293 cells; format: cell-based; conditions: WST-1, PMA 0.1 μM and ionomycin 1 μM; read-out: IC50 NOX5 (HEK) WST-1
T3 construct: expressed in transfected cells
T3 sequence (Q96PH1 19-737 isoform Q96PH1-3 limits assumed): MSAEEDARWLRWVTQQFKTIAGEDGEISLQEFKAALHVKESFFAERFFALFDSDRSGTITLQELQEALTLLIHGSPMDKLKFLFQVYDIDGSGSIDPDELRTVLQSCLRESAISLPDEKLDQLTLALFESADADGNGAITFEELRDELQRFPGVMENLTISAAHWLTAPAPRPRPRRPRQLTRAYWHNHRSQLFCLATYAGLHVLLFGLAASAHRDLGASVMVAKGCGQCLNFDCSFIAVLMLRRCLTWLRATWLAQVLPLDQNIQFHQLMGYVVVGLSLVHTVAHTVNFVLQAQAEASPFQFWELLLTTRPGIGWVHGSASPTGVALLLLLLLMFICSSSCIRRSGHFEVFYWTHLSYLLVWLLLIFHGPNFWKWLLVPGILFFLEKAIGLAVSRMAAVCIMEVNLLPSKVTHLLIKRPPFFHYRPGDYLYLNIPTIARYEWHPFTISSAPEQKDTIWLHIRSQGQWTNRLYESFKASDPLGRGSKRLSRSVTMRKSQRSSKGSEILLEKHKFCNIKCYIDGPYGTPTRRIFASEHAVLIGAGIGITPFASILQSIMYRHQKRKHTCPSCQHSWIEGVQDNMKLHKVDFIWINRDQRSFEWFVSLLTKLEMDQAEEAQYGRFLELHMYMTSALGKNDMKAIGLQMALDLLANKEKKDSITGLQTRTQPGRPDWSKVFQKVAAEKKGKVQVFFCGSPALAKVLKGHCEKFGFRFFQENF

[4] = Cell-free CBA assay with 10 μM H2O2 (H2O2 scavenging); conditions: 10 μM H2O2, 800 μM CBA
[5] = Cell-free Amplex Red/HRP assay with 10 μM H2O2 (H2O2 scavenging / HRP inhibition); conditions: 10 μM H2O2, Amplex Red/HRP, read-out: Scavenging effect IC50 AR H2O2

IC50 (NOX2)	IC50 (human NOX1)	IC50 (NOX5)	IC50 [5]	Structure (SMILES)	CC50 at 1 h (in vitro [1])	CC50 at 1 h (in vitro [2])	CC50 at 1 h (in vitro [3])	Effect on CBA signal (direct scavenging of H2O2) ([4]; at high concentration)	CC50 at 1 h (in vitro [1]; PLB-985 cells)	CC50 at 1 h (in vitro [2]; HEK/T-REx cells)	CC50 at 1 h (in vitro [3]; CHO cells)	Effect on CBA signal (direct scavenging of H2O2) ([4]; serial dilutions)
38.9 µM	32.7 µM	> 50 µM	11.5 µM	COc1cc(C(C)=O)cc(-c2cc(C(C)=O)cc(OC)c2O)c1O [Diapocynin, diapocynin]					> 50 µM	> 50 µM	> 50 µM	inactive
12.2 µM	9.2 µM	> 50 µM	1.9 µM	Cc1c2c(=O)n(-c3ccccc3Cl)[nH]c2cc(=O)n1Cc1ccccn1 [GKT136901]					> 50 µM	> 50 µM	> 50 µM	not scavenging H2O2

Continued, compound first:

Structure (SMILES)	IC50 (NOX2)	IC50 (human NOX1)	IC50 (NOX5)	IC50 [5]	CC50 at 1 h (in vitro [1])	CC50 at 1 h (in vitro [2])	CC50 at 1 h (in vitro [3])	Effect on CBA signal (direct scavenging of H2O2) ([4]; at high concentration)	CC50 at 1 h (in vitro [1]; PLB-985 cells)	CC50 at 1 h (in vitro [2]; HEK/T-REx cells)	CC50 at 1 h (in vitro [3]; CHO cells)	Effect on CBA signal (direct scavenging of H2O2) ([4]; serial dilutions)
COc1cc(C(C)=O)ccc1O [Apocynin, apocynin]	> 50 µM	> 50 µM	> 50 µM	> 50 µM	> 50 µM	> 50 µM	> 50 µM	inhibited the CBA signal				
c1ccc2c(c1)[I+]c1ccccc1-2 [DPI, diphenylene iodonium chloride]				> 50 µM	> 50 µM	> 50 µM	> 50 µM					
O=c1c2ccccc2[se]n1-c1ccccc1 [Ebselen, ebselen]		2.9 µM		3.3 µM					3.1 µM	1.8 µM	3.3 µM	inhibited the CBA signal
